Literature values as cited in patent US5741805A, “Controlled release pilocarpine delivery system” (OraMed, Inc., priority 1995, dated 1998).

Tested on: xerostomia
Settings: 5 mg capsules or tablets three to four times a day

CC[C@@H]1C(=O)OC[C@@H]1Cc1cncn1C [Pilocarpine, pilocarpine]
salivary function: marked improvement
side effects: numerous side effects
